Results taken from patent US9828379B2 (priority 2013, dated 2017).

What was measured:
ABHD6 [1] = biological target: T1, ABHD6 (Mus musculus, UniProt Q8R2Y0); assay: biochemical; details: in vitro competitive ABPP
T1 sequence (Q8R2Y0 1-336): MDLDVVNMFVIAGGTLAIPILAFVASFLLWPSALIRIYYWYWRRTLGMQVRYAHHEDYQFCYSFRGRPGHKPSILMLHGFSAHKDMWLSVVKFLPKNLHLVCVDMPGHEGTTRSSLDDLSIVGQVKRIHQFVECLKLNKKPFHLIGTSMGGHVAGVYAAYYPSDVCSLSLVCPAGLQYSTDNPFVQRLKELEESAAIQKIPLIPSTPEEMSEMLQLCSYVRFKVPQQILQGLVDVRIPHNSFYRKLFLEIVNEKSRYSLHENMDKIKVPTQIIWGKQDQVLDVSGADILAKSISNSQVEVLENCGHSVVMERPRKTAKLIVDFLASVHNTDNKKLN

FAAH [2] = biological target: T2, FAAH (Mus musculus, UniProt O08914); assay: biochemical; details: in vitro competitive ABPP
T2 sequence (O08914 1-579): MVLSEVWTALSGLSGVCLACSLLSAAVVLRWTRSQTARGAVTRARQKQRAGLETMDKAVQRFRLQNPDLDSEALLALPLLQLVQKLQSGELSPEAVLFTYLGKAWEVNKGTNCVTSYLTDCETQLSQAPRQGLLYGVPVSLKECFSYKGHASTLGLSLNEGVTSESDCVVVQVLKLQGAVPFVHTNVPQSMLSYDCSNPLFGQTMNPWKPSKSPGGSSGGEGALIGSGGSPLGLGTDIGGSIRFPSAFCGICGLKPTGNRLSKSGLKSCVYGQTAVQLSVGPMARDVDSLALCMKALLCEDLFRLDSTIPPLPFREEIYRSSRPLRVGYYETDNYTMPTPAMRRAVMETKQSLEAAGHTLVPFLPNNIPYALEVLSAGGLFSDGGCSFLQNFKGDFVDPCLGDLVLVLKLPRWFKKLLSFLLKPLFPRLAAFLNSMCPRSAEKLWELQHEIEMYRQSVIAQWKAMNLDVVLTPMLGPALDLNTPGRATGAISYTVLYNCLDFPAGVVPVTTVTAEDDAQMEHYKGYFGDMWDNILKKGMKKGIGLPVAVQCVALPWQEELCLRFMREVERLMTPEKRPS

MAGL [3] = biological target: T3, MAGL (Mus musculus, UniProt O35678); assay: biochemical; details: mouse; in vitro competitive ABPP; read-out: Mouse (IC50 value, nM) MAGL
T3 sequence (O35678 1-303): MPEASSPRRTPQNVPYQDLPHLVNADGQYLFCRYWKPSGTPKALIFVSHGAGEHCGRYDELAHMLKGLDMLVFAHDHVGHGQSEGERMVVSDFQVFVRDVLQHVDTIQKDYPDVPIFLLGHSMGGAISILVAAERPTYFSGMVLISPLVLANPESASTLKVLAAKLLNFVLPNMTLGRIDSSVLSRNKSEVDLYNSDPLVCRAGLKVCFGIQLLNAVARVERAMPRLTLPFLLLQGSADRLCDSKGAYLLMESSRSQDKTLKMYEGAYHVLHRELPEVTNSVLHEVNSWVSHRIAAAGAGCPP

Mouse brain MAGL = biological target: T4, Mouse brain MAGL (Mus musculus, UniProt O35678); assay: Mouse brain proteomes from inhibitor treated mice (oral gavage, ABPP analysis); format: in vivo; details: p.o., sacrificed 4 h following administration
T4 construct: from tissue; host or cells: brain of wild-type C57Bl/6J mice dosed by oral gavage
T4 sequence (O35678 1-303): T3 sequence (O35678 1-303)
Method: After 30 min, FP—Rh (1.0 μL, 50 μM in DMSO) was added and the mixture was incubated for another 30 min at 37° C. Reactions were quenched with SDS loading buffer (50 μL-4×) and run on SDS-PAGE. Following gel imaging, serine hydrolase activity was determined by measuring fluorescent intensity of gel bands corresponding to MAGL, ABHD6 and FAAH using ImageJ 1.43 u software.
Inhibitors were administered to wild-type C57Bl/6J by oral gavage in a vehicle of polyethylene glycol. Each animal was sacrificed 4 h following administration and brain proteomes were prepared and analyzed according to previously established methods (See Niphakis, M. J., et al. (2011) ACS Chem. Neurosci. and Long, J. Z., et al. Nat. Chem. Biol. 5:37-44).

ABHD6 [4] = biological target: T1, ABHD6; assay: In vitro competitive activity-based protein profiling (Table 2, % inhibition at 1 μM); format: biochemical; details: read-out: % Inhibition at 1 μM ABHD6
FAAH [5] = biological target: T2, FAAH; assay: as above; format: biochemical; details: read-out: % Inhibition at 1 μM FAAH
MAGL [6] = biological target: T3, MAGL; assay: as above; format: biochemical; details: read-out: % Inhibition at 1 μM MAGL
Method: After 30 min, FP—Rh (1.0 μL, 50 μM in DMSO) was added and the mixture was incubated for another 30 min at 37° C. Reactions were quenched with SDS loading buffer (50 μL-4×) and run on SDS-PAGE.
Cell lysates were diluted with mock proteomes for use in competitive ABPP experiments.

| Structure (SMILES) | IC50 (ABHD6 [1]) | IC50 (FAAH [2]) | IC50 (MAGL [3]) | inhibition at 5 mg/kg (Mouse brain MAGL) | inhibition at 1 µM (ABHD6 [4]) | inhibition at 1 µM (FAAH [5]) | inhibition at 1 µM (MAGL [6]) |
| --- | --- | --- | --- | --- | --- | --- | --- |
| O=C(OC(C(F)(F)F)C(F)(F)F)N1CC2CN(Cc3cccc(Cl)c3N3CCC4(CCOCC4)C3)CC2C1 (stereo not shown) [Example 172, 1,1,1,3,3,3-hexafluoropropan-2-yl 5-[(3-chloro-2-[8-oxa-2-azaspiro[4.5]decan-2-yl]phenyl)methyl]-octahydropyrrolo[3,4-c]pyrrole-2-carboxylate] | 1000 to 10000 nM | > 10000 nM | < 100 nM | ≤ 25% | < 25% | < 25% | > 75% |
| CC(C)(C)c1cc(CN2CC3CN(C(=O)OC(C(F)(F)F)C(F)(F)F)CC3C2)n(-c2ccccc2Cl)n1 (stereo not shown) [Example 170, 1,1,1,3,3,3-hexafluoropropan-2-yl 5-[[3-tert-butyl-1-(2-chlorophenyl)-1H-pyrazol-5-yl]methyl]-octahydropyrrolo[3,4-c]pyrrole-2-carboxylate] | 1000 to 10000 nM | > 10000 nM | < 100 nM | 25 to 75% | 25 to 75% | < 25% | > 75% |
| Cc1ccc(CN2CC3CN(C(=O)OC(C(F)(F)F)C(F)(F)F)CC3C2)c(-c2ccccc2)c1 (stereo not shown) [Example 207, 1,1,1,3,3,3-hexafluoropropan-2-yl 5-((5-methyl-[1,1′-biphenyl]-2-yl)methyl)hexahydropyrrolo[3,4-c]pyrrole-2(1H)-carboxylate] | 1000 to 10000 nM | 1000 to 10000 nM | 100 to 1000 nM | ≥ 75% | < 25% | < 25% | > 75% |
| CC(=O)N1CCN(c2cccc(CN3CC4CN(C(=O)OC(C(F)(F)F)C(F)(F)F)CC4C3)c2C)CC1 (stereo not shown) [Example 152, 1,1,1,3,3,3-hexafluoropropan-2-yl 5-[[3-(4-acetylpiperazin-1-yl)-2-methylphenyl]methyl]-octahydropyrrolo[3,4-c]pyrrole-2-carboxylate] | 1000 to 10000 nM | 1000 to 10000 nM | < 100 nM | ≤ 25% | 25 to 75% | < 25% | > 75% |
| CC(C)n1cc(CN2CC3CN(C(=O)OC(C(F)(F)F)C(F)(F)F)CC3C2)c(-c2cccc(Cl)c2)n1 (stereo not shown) [Example 174, 1,1,1,3,3,3-hexafluoropropan-2-yl 5-[[3-(3-chlorophenyl)-1-(propan-2-yl)-1H-pyrazol-4-yl]methyl]-octahydropyrrolo[3,4-c]pyrrole-2-carboxylate] | 1000 to 10000 nM | 1000 to 10000 nM | < 100 nM | ≤ 25% | 25 to 75% | < 25% | > 75% |
| O=C(OC(C(F)(F)F)C(F)(F)F)N1CC2CN(Cc3ccc(Cl)cc3N3CC4CCC(C3)O4)CC2C1 (stereo not shown) [Example 3, 1,1,1,3,3,3-Hexafluoropropan-2-yl 5-(2-(8-oxa-3-azabicyclo[3.2.1]octan-3-yl)-4-chlorobenzyl)hexahydropyrrolo[3,4-c]pyrrole-2(1H)-carboxylate] | 1000 to 10000 nM | 1000 to 10000 nM | < 100 nM | ≤ 25% | 25 to 75% | 25 to 75% | > 75% |
| CC(C)c1cc(CN2CC3CN(C(=O)OC(C(F)(F)F)C(F)(F)F)CC3C2)n(C2CCOCC2)n1 (stereo not shown) [Example 62, 1,1,1,3,3,3-Hexafluoropropan-2-yl 5-[[1-(oxan-4-yl)-3-(propan-2-yl)-1H-pyrazol-5-yl]methyl]-octahydropyrrolo[3,4-c]pyrrole-2-carboxylate] | 1000 to 10000 nM | 1000 to 10000 nM | < 100 nM | ≥ 75% | 25 to 75% | < 25% | > 75% |
| O=C(OC(C(F)(F)F)C(F)(F)F)N1CC2CN(Cc3ccc(Cl)cc3N3CCC4(CCNC4=O)CC3)CC2C1 (stereo not shown) [Example 38, 1,1,1,3,3,3-Hexafluoropropan-2-yl 5-[(4-chloro-2-[1-oxo-2,8-diazaspiro[4.5]decan-8-yl]phenyl)methyl]-octahydropyrrolo[3,4-c]pyrrole-2-carboxylate] | 1000 to 10000 nM | > 10000 nM | < 100 nM | ≤ 25% | < 25% | < 25% | > 75% |
| CS(=O)(=O)N1CC2(CCN(c3ccccc3CN3CC4CN(C(=O)OC(C(F)(F)F)C(F)(F)F)CC4C3)C2)C1 (stereo not shown) [Example 136, 1,1,1,3,3,3-hexafluoropropan-2-yl 5-[(2-[2-methanesulfonyl-2,6-diazaspiro[3.4]octan-6-yl]phenyl)methyl]-octahydropyrrolo[3,4-c]pyrrole-2-carboxylate] | 1000 to 10000 nM | 1000 to 10000 nM | < 100 nM | ≤ 25% | < 25% | < 25% | > 75% |
| O=C(OC(C(F)(F)F)C(F)(F)F)N1CC2CN(Cc3cccc(N4CCOCC4)c3C(F)(F)F)CC2C1 (stereo not shown) [Example 129, 1,1,1,3,3,3-hexafluoropropan-2-yl 5-[[3-(morpholin-4-yl)-2-(trifluoromethyl)phenyl]methyl]-octahydropyrrolo[3,4-c]pyrrole-2-carboxylate] | 1000 to 10000 nM | 1000 to 10000 nM | < 100 nM | ≥ 75% | < 25% | < 25% | > 75% |
| Cn1cc(CN2CC3CN(C(=O)OC(C(F)(F)F)C(F)(F)F)CC3C2)c(-c2ccccc2Cl)n1 (stereo not shown) [Example 51, 1,1,1,3,3,3-Hexafluoropropan-2-yl 5-[[3-(2-chlorophenyl)-1-methyl-1H-pyrazol-4-yl]methyl]-octahydropyrrolo[3,4-c]pyrrole-2-carboxylate] | 1000 to 10000 nM | > 10000 nM | < 100 nM | ≤ 25% | 25 to 75% | < 25% | > 75% |
| Cc1cccc(CN2CC3CN(C(=O)OC(C(F)(F)F)C(F)(F)F)CC3C2)c1N1CCC2(CCOC2)C1 (stereo not shown) [Example 40, 1,1,1,3,3,3-Hexafluoropropan-2-yl 5-[(3-methyl-2-[2-oxa-7-azaspiro[4.4]nonan-7-yl]phenyl)methyl]-octahydropyrrolo[3,4-c]pyrrole-2-carboxylate] | 1000 to 10000 nM | 1000 to 10000 nM | < 100 nM | 25 to 75% | < 25% | < 25% | > 75% |
| CCc1cc(CN2CC3CN(C(=O)OC(C(F)(F)F)C(F)(F)F)CC3C2)n(-c2ccccc2Cl)n1 (stereo not shown) [Example 169, 1,1,1,3,3,3-hexafluoropropan-2-yl 5-[[1-(2-chlorophenyl)-3-ethyl-1H-pyrazol-5-yl]methyl]-octahydropyrrolo[3,4-c]pyrrole-2-carboxylate] | 1000 to 10000 nM | 1000 to 10000 nM | < 100 nM | ≤ 25% | 25 to 75% | < 25% | > 75% |
